According to US12370170B2, “Composition comprising naphthoquinone-based compound as active ingredient, for preventing or ameliorating fatigue, cachexia, pain, cognitive decline and hematopoietic stem cell reduction which are side effects related to anticancer drug treatment” (NADIANBIO LTD., priority 2016, dated 2025):

Experiment: Muscle loss (body weight, gastrocnemius muscle weight) in 3×ACP animal model
Type: in vivo, C57BL/6 mice
Details: 3×ACP i.p. once; dunnione 20 mg/kg oral daily from 3 days before; 2 and 4 days after ACP
Experimental: In this invention, 11 weeks old C57BL/6 mice were used. All the mice used in the experiments of the invention were raised in an aseptic animal room at the temperature of 22˜26 L with the humidity of 55˜60%. The mice were allowed to take general solid feed (SAMTACO Co., Ltd., Korea) and water freely. The mice were adapted for 1 week before the experiment. All the experiments were performed after obtaining approval from the clinical trial management committee in accordance with the laboratory animal care and ethics regulations of Wonkwang University. The mouse animal model of the present invention was treated with different anticancer drugs. Particularly, one kind of anticancer drug was administered intraperitoneally one time or more, or several kinds of anticancer drugs were administered once or more times or at different concentrations, leading to the establishment of the animal model of the invention. […]
To investigate the regulatory effect of dunnione on muscle loss in the 3×ACP animal models prepared by the same manner as described in Example 6, the changes of body weight and gastrocnemius muscle weight were measured after the drug treatment.

CC1OC2=C(C(=O)C(=O)c3ccccc32)C1(C)C (centres unmarked) [dunnione, 2,3-dihydro-2,3,3-trimethyl naphtho [1,2-b]furan-4,5-dione]
reduction of gastrocnemius muscle weight and gastrocnemius muscle weight change: significantly restored | weight loss (body weight): significantly restored
